molecular target: T1, Mitochondrial peptide methionine sulfoxide reductase (Bos taurus, UniProt P54149)
T1 sequence (P54149 whole entry): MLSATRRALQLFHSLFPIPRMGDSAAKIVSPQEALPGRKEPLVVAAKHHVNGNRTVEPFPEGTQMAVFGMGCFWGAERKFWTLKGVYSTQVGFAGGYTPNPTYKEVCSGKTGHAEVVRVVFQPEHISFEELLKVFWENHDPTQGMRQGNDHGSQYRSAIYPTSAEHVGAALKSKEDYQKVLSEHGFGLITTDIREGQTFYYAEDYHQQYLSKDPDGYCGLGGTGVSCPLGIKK

CCc1noc(C)c1C(=O)Nc1nc(-c2ccc(F)cc2)c(C)s1 [3-ethyl-N-[4-(4-fluorophenyl)-5-methyl-1,3-thiazol-2-yl]-5-methyl-1,2-oxazole-4-carboxamide] and CCc1noc(C)c1C(=O)Nc1nc(-c2cc(C)ccc2C)c(C)s1 [MLS000324834] cannot be ordered by IC50: over 155 µM for the first, over 155 µM for the second.

O=C(c1ccccc1)c1coc2c1C(=O)c1ccccc1C2=O [3-benzoylbenzo[f]benzofuran-4,9-dione] and O=C(c1ccco1)c1cc2c(ccc3ccccc32)oc1=O [2-(furan-2-ylcarbonyl)benzo[f]chromen-3-one] cannot be ordered by IC50: over 155 µM for the first, over 155 µM for the second.

O=C(O)c1cccc(N=NCc2sc(N3CCOCC3)nc2-c2ccccc2)c1 [3-[(2E)-2-[(2-morpholin-4-yl-4-phenyl-1,3-thiazol-5-yl)methylidene]hydrazinyl]benzoic acid] and c1ccc2c(c1)nc(N1CCOCC1)c1nnnn12 [4-(4-tetrazolo[1,5-a]quinoxalinyl)morpholine] cannot be ordered by IC50: over 155 µM for the first, over 155 µM for the second.

N#Cc1c(N2CCCC2)ccc(Br)c1Cl [3-bromo-2-chloro-6-tetrahydro-1H-pyrrol-1-ylbenzonitrile] and CCSc1nc(N2CCOCC2)c2c(c1C#N)CCCC2 [3-(ethylthio)-1-(4-morpholinyl)-5,6,7,8-tetrahydroisoquinoline-4-carbonitrile] cannot be ordered by IC50: over 155 µM for the first, over 155 µM for the second.

Going from CCOP(=O)(CCP(=O)(OCC)OCC)OCC [MLS002702923] to CCOc1ccc(N(C)S(=O)(=O)c2cc(-c3cc(C)no3)ccc2C)cc1 [SMR000630369], the IC50 rises from 11 µM to over 155 µM. The first is the more potent here.

O=c1oc2ccccc2c2c1cnc1ccccc12 [MLS000518195] and Cc1cc(OCC(=O)N2CCc3ccccc3C2)c2c(-c3ccccc3)cc(=O)oc2c1 [5-[2-(3,4-dihydro-2(1H)-isoquinolinyl)-2-oxoethoxy]-7-methyl-4-phenyl-2H-chromen-2-one] cannot be ordered by IC50: over 155 µM for the first, over 155 µM for the second.

Cc1ccc(Nc2[nH]nc(C)c2[N+](=O)[O-])cc1C [(3,4-Dimethyl-phenyl)-(5-methyl-4-nitro-2H-pyrazol-3-yl)-amine] and Cc1cccc(Nc2oc3cc(=O)ccc-3cc2C(N)=O)c1 [(2Z)-7-hydroxy-2-[(3-methylphenyl)imino]-2H-chromene-3-carboxamide] cannot be ordered by IC50: over 155 µM for the first, over 155 µM for the second.

CCC(C)c1ccccc1NC(=O)COC(=O)C1=NN(c2ccccc2)C(=O)CC1 (configuration not stated) [6-oxo-1-phenyl-4,5-dihydropyridazine-3-carboxylic acid [2-(2-butan-2-ylanilino)-2-oxoethyl] ester] and Nc1nnc(CC(=O)N/N=C/c2ccc(-c3ccccc3)o2)s1 cannot be ordered by IC50: over 155 µM for the first, over 155 µM for the second.

CC1=CC(=C(C#N)C#N)C=C(C)N1CCN1CCNCC1 [2-[2,6-dimethyl-1-(2-piperazin-1-ylethyl)pyridin-4-ylidene]propanedinitrile] and N#Cc1c(NCCCO)nc(-c2ccco2)c2c1CCCC2 cannot be ordered by IC50: over 155 µM for the first, over 155 µM for the second.

Cc1nonc1C1CCCN1Cc1c[nH]nc1-c1ccc(-c2ccccc2)cc1 (configuration not stated) [SMR000316348] and COc1ccc(-c2cc(C(F)F)n3ncc(C(=O)n4ccnc4C)c3n2)cc1 [MLS000581677] cannot be ordered by IC50: over 155 µM for the first, over 155 µM for the second.

CCN(c1ccccc1)c1nc2nonc2nc1NCCO [2-[6-(Ethyl-phenyl-amino)-[1,2,5]oxadiazolo[3,4-b]pyrazin-5-ylamino]-ethanol] and CCOC(=O)N/N=C1/c2ccccc2-c2nc3nonc3nc21 [SMR000305141] cannot be ordered by IC50: over 155 µM for the first, over 155 µM for the second.

C#Cc1cccc(Nc2nc(NCc3ccccc3OC)nc3ccsc23)c1 [MLS003123009] and C#Cc1cccc(Nc2nc(NCCOC)nc3ccsc23)c1 [4-N-(3-ethynylphenyl)-2-N-(2-methoxyethyl)thieno[3,2-d]pyrimidine-2,4-diamine] cannot be ordered by IC50: over 155 µM for the first, over 155 µM for the second.

CSc1nc2sc3c(c2c2nnnn12)CCCC3 [MLS000071273] and Cc1ccc(C)n1-n1c(C)nc2scc(-c3cccs3)c2c1=O [3-(2,5-dimethyl-1-pyrrolyl)-2-methyl-5-thiophen-2-yl-4-thieno[2,3-d]pyrimidinone] cannot be ordered by IC50: over 155 µM for the first, over 155 µM for the second.

Cc1ccc(CC2(C)C(=O)Nc3ccc(OC(F)(F)F)cc32)cc1 (configuration not stated) [SMR001453901] was tested, and the IC50 was over 155 µM.

From BindingDB's records for doi:10.7270/Q2639NCQ (The Scripps Research Institute Molecular Screening Center, 2013)
